# From publication PMC12260505, “First-in-Human Phase I/IIa Study of the First-in-Class CDK2/4/6 Inhibitor PF-06873600 Alone or with Endocrine Therapy in Patients with Breast Cancer” (Clinical Cancer Research, 2025)
# Assay: Adverse events graded by NCI CTCAE version 4.03, phase I/IIa study
# Assay type: in vivo
# Method: Part 1 included adult patients with HR^+/HER2^− advanced breast cancer or mBC (third- or fourth-line setting), locally recurrent/advanced or metastatic TNBC, or advanced platinum-resistant epithelial ovarian cancer/fallopian tube cancer/primary peritoneal cancer who received oral PF-06873600 at doses of 1 to 50 mg twice daily or oral PF-06873600 plus ET (letrozole or fulvestrant). Primary endpoints for part 1 dose escalation determined safety and tolerability to define dose-limiting toxicities (DLT), estimate the maximum tolerated dose, and select the recommended dose for expansion (RDE). Safety endpoints included adverse events (AE) characterized by type, frequency, severity [as graded by NCI Common Terminology Criteria for Adverse Events (CTCAE) version 4.03], timing, seriousness, and relationship to study therapy. Laboratory abnormalities were characterized by type, frequency, severity (as graded by NCI CTCAE version 4.03), timing, vital sign abnormalities, and heart rate–corrected QT interval (e.g., QTcF). Secondary endpoints included PK, preliminary antitumor activity as assessed using RECIST version 1.1, time-to-event endpoints including objective response rate (ORR), duration of response (DoR), progression-free survival (PFS), time to progression (TTP), and modulation of tumor CDK biomarkers [phosphorylated Rb (pRb), Ki67]. Exploratory endpoints included molecular profiling of tumor and ctDNA and the relationship to clinical outcome.
# AEs were graded by NCI CTCAE version 4.03.
# [1] = Part 2A 25 mg BID IR + Fulvestrant, N = 45
# [2] = Part 2C 25 mg BID IR + Fulvestrant, N = 28
structure (smiles),measurement,setting,value
C[C@@]1(O)CCC[C@H]1n1c(=O)c(C(F)F)cc2cnc(NC3CCN(S(C)(=O)=O)CC3)nc21 [PF-06873600],"Treatment-related TEAE, Abdominal pain, Grade 1",[1],7 (15.6) n (%)
same,"Treatment-related TEAE, Abdominal pain, Grade 2",[1],1 (2.2) n (%)
same,"Treatment-related TEAE, Abdominal pain, Grade 3/4",[1],0 n (%)
same,"Treatment-related TEAE, Abdominal pain, Grade 5",[1],0 n (%)
same,"Treatment-related TEAE, Abdominal pain, Total",[1],8 (17.8) n (%)
same,"Treatment-related TEAE, Alopecia, Grade 1",[1],7 (15.6) n (%)
same,"Treatment-related TEAE, Alopecia, Grade 2",[1],9 (20.0) n (%)
same,"Treatment-related TEAE, Alopecia, Grade 3/4",[1],0 n (%)
same,"Treatment-related TEAE, Alopecia, Grade 5",[1],0 n (%)
same,"Treatment-related TEAE, Alopecia, Total",[1],16 (35.6 ) n (%)
same,"Treatment-related TEAE, Anemia, Grade 1",[1],3 (6.7) n (%)
same,"Treatment-related TEAE, Anemia, Grade 2",[1],10 (22.2 ) n (%)
same,"Treatment-related TEAE, Anemia, Grade 3/4",[1],7 (15.6) n (%)
same,"Treatment-related TEAE, Anemia, Grade 5",[1],0 n (%)
same,"Treatment-related TEAE, Anemia, Total",[1],20 (44.4 ) n (%)
same,"Treatment-related TEAE, Any adverse event, Grade 1",[1],9 (20.0) n (%)
same,"Treatment-related TEAE, Any adverse event, Grade 2",[1],17 (37.8 ) n (%)
same,"Treatment-related TEAE, Any adverse event, Grade 3/4",[1],19 (42.2 ) n (%)
same,"Treatment-related TEAE, Any adverse event, Grade 5",[1],0 n (%)
same,"Treatment-related TEAE, Any adverse event, Total",[1],45 (100. 0) n (%)
same,"Treatment-related TEAE, Constipation, Grade 1",[1],4 (8.9) n (%)
same,"Treatment-related TEAE, Constipation, Grade 2",[1],5 (11.1) n (%)
same,"Treatment-related TEAE, Constipation, Grade 3/4",[1],0 n (%)
same,"Treatment-related TEAE, Constipation, Grade 5",[1],0 n (%)
same,"Treatment-related TEAE, Constipation, Total",[1],9 (20.0) n (%)
same,"Treatment-related TEAE, Decreased appetite, Grade 1",[1],6 (13.3) n (%)
same,"Treatment-related TEAE, Decreased appetite, Grade 2",[1],1 (2.2) n (%)
same,"Treatment-related TEAE, Decreased appetite, Grade 3/4",[1],0 n (%)
same,"Treatment-related TEAE, Decreased appetite, Grade 5",[1],0 n (%)
same,"Treatment-related TEAE, Decreased appetite, Total",[1],7 (15.6) n (%)
same,"Treatment-related TEAE, Diarrhea, Grade 1",[1],7 (15.6) n (%)
same,"Treatment-related TEAE, Diarrhea, Grade 2",[1],1 (2.2) n (%)
same,"Treatment-related TEAE, Diarrhea, Grade 3/4",[1],2 (4.4) n (%)
same,"Treatment-related TEAE, Diarrhea, Grade 5",[1],0 n (%)
same,"Treatment-related TEAE, Diarrhea, Total",[1],10 (22.2 ) n (%)
same,"Treatment-related TEAE, Dizziness, Grade 1",[1],6 (13.3) n (%)
same,"Treatment-related TEAE, Dizziness, Grade 2",[1],2 (4.4) n (%)
same,"Treatment-related TEAE, Dizziness, Grade 3/4",[1],0 n (%)
same,"Treatment-related TEAE, Dizziness, Grade 5",[1],0 n (%)
same,"Treatment-related TEAE, Dizziness, Total",[1],8 (17.8) n (%)
same,"Treatment-related TEAE, Fatigue, Grade 1",[1],10 (22.2 ) n (%)
same,"Treatment-related TEAE, Fatigue, Grade 2",[1],13 (28.9 ) n (%)
same,"Treatment-related TEAE, Fatigue, Grade 3/4",[1],5 (11.1) n (%)
same,"Treatment-related TEAE, Fatigue, Grade 5",[1],0 n (%)
same,"Treatment-related TEAE, Fatigue, Total",[1],28 (62.2 ) n (%)
same,"Treatment-related TEAE, Headache, Grade 1",[1],12 (26.7 ) n (%)
same,"Treatment-related TEAE, Headache, Grade 2",[1],4 (8.9) n (%)
same,"Treatment-related TEAE, Headache, Grade 3/4",[1],0 n (%)
same,"Treatment-related TEAE, Headache, Grade 5",[1],0 n (%)
same,"Treatment-related TEAE, Headache, Total",[1],16 (35.6 ) n (%)
same,"Treatment-related TEAE, Leukopenia, Grade 1",[1],1 (2.2) n (%)
same,"Treatment-related TEAE, Leukopenia, Grade 2",[1],8 (17.8) n (%)
same,"Treatment-related TEAE, Leukopenia, Grade 3/4",[1],2 (4.4) n (%)
same,"Treatment-related TEAE, Leukopenia, Grade 5",[1],0 n (%)
same,"Treatment-related TEAE, Leukopenia, Total",[1],11 (24.4 ) n (%)
same,"Treatment-related TEAE, Nausea, Grade 1",[1],22 (48.9 ) n (%)
same,"Treatment-related TEAE, Nausea, Grade 2",[1],6 (13.3) n (%)
same,"Treatment-related TEAE, Nausea, Grade 3/4",[1],1 (2.2) n (%)
same,"Treatment-related TEAE, Nausea, Grade 5",[1],0 n (%)
same,"Treatment-related TEAE, Nausea, Total",[1],29 (64.4 ) n (%)
same,"Treatment-related TEAE, Neutropenia, Grade 1",[1],4 (8.9) n (%)
same,"Treatment-related TEAE, Neutropenia, Grade 2",[1],5 (11.1) n (%)
same,"Treatment-related TEAE, Neutropenia, Grade 3/4",[1],13 (28.9 ) n (%)
same,"Treatment-related TEAE, Neutropenia, Grade 5",[1],0 n (%)
same,"Treatment-related TEAE, Neutropenia, Total",[1],22 (48.9 ) n (%)
same,"Treatment-related TEAE, Thrombocytopenia, Grade 1",[1],5 (11.1) n (%)
same,"Treatment-related TEAE, Thrombocytopenia, Grade 2",[1],2 (4.4) n (%)
same,"Treatment-related TEAE, Thrombocytopenia, Grade 3/4",[1],3 (6.7) n (%)
same,"Treatment-related TEAE, Thrombocytopenia, Grade 5",[1],0 n (%)
same,"Treatment-related TEAE, Thrombocytopenia, Total",[1],10 (22.2 ) n (%)
same,"Treatment-related TEAE, Vomiting, Grade 1",[1],12 (26.7 ) n (%)
same,"Treatment-related TEAE, Vomiting, Grade 2",[1],3 (6.7) n (%)
same,"Treatment-related TEAE, Vomiting, Grade 3/4",[1],1 (2.2) n (%)
same,"Treatment-related TEAE, Vomiting, Grade 5",[1],0 n (%)
same,"Treatment-related TEAE, Vomiting, Total",[1],16 (35.6 ) n (%)
same,"Treatment-related TEAE, Abdominal pain, Grade 1",[2],0 n (%)
same,"Treatment-related TEAE, Abdominal pain, Grade 2",[2],0 n (%)
same,"Treatment-related TEAE, Abdominal pain, Grade 3/4",[2],0 n (%)
same,"Treatment-related TEAE, Abdominal pain, Grade 5",[2],0 n (%)
same,"Treatment-related TEAE, Abdominal pain, Total",[2],0 n (%)
same,"Treatment-related TEAE, Alopecia, Grade 1",[2],6 (21.4) n (%)
same,"Treatment-related TEAE, Alopecia, Grade 2",[2],2 (7.1) n (%)
same,"Treatment-related TEAE, Alopecia, Grade 3/4",[2],0 n (%)
same,"Treatment-related TEAE, Alopecia, Grade 5",[2],0 n (%)
same,"Treatment-related TEAE, Alopecia, Total",[2],8 (28.6) n (%)
same,"Treatment-related TEAE, Anemia, Grade 1",[2],4 (14.3) n (%)
same,"Treatment-related TEAE, Anemia, Grade 2",[2],3 (10.7) n (%)
same,"Treatment-related TEAE, Anemia, Grade 3/4",[2],3 (10.7) n (%)
same,"Treatment-related TEAE, Anemia, Grade 5",[2],0 n (%)
same,"Treatment-related TEAE, Anemia, Total",[2],10 (35.7 ) n (%)
same,"Treatment-related TEAE, Any adverse event, Grade 1",[2],7 (25.0) n (%)
same,"Treatment-related TEAE, Any adverse event, Grade 2",[2],8 (28.6) n (%)
same,"Treatment-related TEAE, Any adverse event, Grade 3/4",[2],8 (28.6) n (%)
same,"Treatment-related TEAE, Any adverse event, Grade 5",[2],1 (3.6) n (%)
same,"Treatment-related TEAE, Any adverse event, Total",[2],24 (85.7 ) n (%)
same,"Treatment-related TEAE, Constipation, Grade 1",[2],1 (3.6) n (%)
same,"Treatment-related TEAE, Constipation, Grade 2",[2],2 (7.1) n (%)
same,"Treatment-related TEAE, Constipation, Grade 3/4",[2],0 n (%)
same,"Treatment-related TEAE, Constipation, Grade 5",[2],0 n (%)
same,"Treatment-related TEAE, Constipation, Total",[2],3 (10.7) n (%)
same,"Treatment-related TEAE, Decreased appetite, Grade 1",[2],2 (7.1) n (%)
same,"Treatment-related TEAE, Decreased appetite, Grade 2",[2],0 n (%)
same,"Treatment-related TEAE, Decreased appetite, Grade 3/4",[2],0 n (%)
same,"Treatment-related TEAE, Decreased appetite, Grade 5",[2],0 n (%)
same,"Treatment-related TEAE, Decreased appetite, Total",[2],2 (7.1) n (%)
same,"Treatment-related TEAE, Diarrhea, Grade 1",[2],4 (14.3) n (%)
same,"Treatment-related TEAE, Diarrhea, Grade 2",[2],1 (3.6) n (%)
same,"Treatment-related TEAE, Diarrhea, Grade 3/4",[2],0 n (%)
same,"Treatment-related TEAE, Diarrhea, Grade 5",[2],0 n (%)
same,"Treatment-related TEAE, Diarrhea, Total",[2],5 (17.9) n (%)
same,"Treatment-related TEAE, Dizziness, Grade 1",[2],0 n (%)
same,"Treatment-related TEAE, Dizziness, Grade 2",[2],1 (3.6) n (%)
same,"Treatment-related TEAE, Dizziness, Grade 3/4",[2],0 n (%)
same,"Treatment-related TEAE, Dizziness, Grade 5",[2],0 n (%)
same,"Treatment-related TEAE, Dizziness, Total",[2],1 (3.6) n (%)
same,"Treatment-related TEAE, Fatigue, Grade 1",[2],7 (25.0) n (%)
same,"Treatment-related TEAE, Fatigue, Grade 2",[2],0 n (%)
same,"Treatment-related TEAE, Fatigue, Grade 3/4",[2],2 (7.1) n (%)
same,"Treatment-related TEAE, Fatigue, Grade 5",[2],0 n (%)
same,"Treatment-related TEAE, Fatigue, Total",[2],9 (32.1) n (%)
same,"Treatment-related TEAE, Headache, Grade 1",[2],9 (32.1) n (%)
same,"Treatment-related TEAE, Headache, Grade 2",[2],0 n (%)
